# Test results as given in patent publication US8933234B2, “O-amino benzonitrile compounds, method for preparing same and uses thereof” (Hangzhou Udragon Chemical Co., Ltd., priority 2011, dated 2015).
# Test system: Diamondback moth
# Assay: Insecticidal effect on diamondback moth (cabbage leaf disc dip test)
# Type: in vivo
# Conditions: 1 mg/L; leaf disc immersed 10 seconds; larvae; mortality
# Protocol: (§1) The compound to be tested dissolved in acetone and 1‰ Tween-80 solution, and was formulated to 50 ml of the test solution with desired concentration. The cabbage leaves having been cleaned and dried were made into leaf disc with diameter of 1 cm with hole puncher. The leaf disc were immersed in the drug liquid for 10 seconds and then removed, dried naturally, loaded in the culture dish. 10 […] diamondback moth larvae were introduced per dish and repeated for three times. After the treatment, the dishes were placed into a room with temperature of 20° C., relative humidity of 60-70% and without illumination to take an indoor culture. The survival of insects was surveyed and the mortality was calculated.
row,Structure (SMILES),Insecticidal Effect (%) Diamondback moth (1 mg/L) [%]
1,Cc1cc(Cl)cc(C#N)c1NC(=O)c1cc(Br)nn1-c1ncccc1Cl [Compound I-1],50
2,Cc1cc(Cl)cc(C#N)c1NC(=O)c1cc(Br)nn1-c1ncc(Cl)cc1Cl [Compound I-2],80
3,Cc1cc(Cl)cc(C#N)c1NC(=O)c1cc(Br)nn1-c1ncc(Cl)cc1F [Compound I-3],100
4,N#Cc1cc(Cl)cc(Cl)c1NC(=O)c1cc(Br)nn1-c1ncccc1Cl [Compound I-4],100
5,N#Cc1cc(Cl)cc(Cl)c1NC(=O)c1cc(Br)nn1-c1ncc(Cl)cc1Cl [Compound I-5],100
6,N#Cc1cc(Cl)cc(Cl)c1NC(=O)c1cc(Br)nn1-c1ncc(Cl)cc1F [Compound I-6],100
7,Cc1cc(Cl)cc(C#N)c1NC(=O)c1cc(Br)nn1-c1ncc(C(F)(F)F)cc1Cl [Compound I-7],90

# Same assay, conditions: Plutella xylostella, foliar, 72 h; concentration of 1 mg/L; 3 days
row,Structure (SMILES),mortality at 1 µg/mL [%]
1,Cc1cc(Cl)cc(C#N)c1NC(=O)c1cc(Br)nn1-c1ncc(Cl)cc1F [Compound I-3],100
2,N#Cc1cc(Cl)cc(Cl)c1NC(=O)c1cc(Br)nn1-c1ncccc1Cl [Compound I-4],100
3,N#Cc1cc(Cl)cc(Cl)c1NC(=O)c1cc(Br)nn1-c1ncc(Cl)cc1Cl [Compound I-5],100
4,N#Cc1cc(Cl)cc(Cl)c1NC(=O)c1cc(Br)nn1-c1ncc(Cl)cc1F [Compound I-6],100

# Test system: pink stem borer
# Assay: Insecticidal effect on pink stem borer (method of Test Example 1)
# Type: in vivo
# Conditions: 2 mg/L; leaf disc immersed 10 seconds; mortality
# Protocol: [The procedure below names another organism; the source lists this organism under the same test.] as §1
row,Structure (SMILES),Insecticidal Effect (%) pink stem borer (2 mg/L) [%]
1,Cc1cc(Cl)cc(C#N)c1NC(=O)c1cc(Br)nn1-c1ncccc1Cl [Compound I-1],40
2,Cc1cc(Cl)cc(C#N)c1NC(=O)c1cc(Br)nn1-c1ncc(Cl)cc1Cl [Compound I-2],50
3,Cc1cc(Cl)cc(C#N)c1NC(=O)c1cc(Br)nn1-c1ncc(Cl)cc1F [Compound I-3],85
4,N#Cc1cc(Cl)cc(Cl)c1NC(=O)c1cc(Br)nn1-c1ncccc1Cl [Compound I-4],98
5,N#Cc1cc(Cl)cc(Cl)c1NC(=O)c1cc(Br)nn1-c1ncc(Cl)cc1Cl [Compound I-5],70
6,N#Cc1cc(Cl)cc(Cl)c1NC(=O)c1cc(Br)nn1-c1ncc(Cl)cc1F [Compound I-6],90
7,Cc1cc(Cl)cc(C#N)c1NC(=O)c1cc(Br)nn1-c1ncc(C(F)(F)F)cc1Cl [Compound I-7],80

# Same assay, conditions: concentration of 2 mg/L; 3 days
row,Structure (SMILES),mortality to pink stem borer in 3 days [%]
1,N#Cc1cc(Cl)cc(Cl)c1NC(=O)c1cc(Br)nn1-c1ncccc1Cl [Compound I-4],98
